Results as given in paper PMC8037161 (International Journal of Molecular Sciences, 2021).
Where two headings read alike, the source gives them in different places.

Key:
pBR322 plasmid = conditions: cited from earlier work
recombinant human DHFR [1] = target: T1, recombinant human DHFR (Homo sapiens, UniProt P00374); set-up: method as in PMID 31892256; conditions: previously synthesized TMP analogs A–F; cited from earlier work
T1 construct: purchased
T1 sequence (P00374 1-187): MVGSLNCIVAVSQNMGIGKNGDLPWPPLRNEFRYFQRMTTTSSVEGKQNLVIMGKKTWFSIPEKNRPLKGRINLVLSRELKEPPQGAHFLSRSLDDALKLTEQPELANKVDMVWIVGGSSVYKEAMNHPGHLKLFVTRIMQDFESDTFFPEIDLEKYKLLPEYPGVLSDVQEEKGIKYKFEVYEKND

recombinant human DHFR [2] = target: T1, recombinant human DHFR; assay: Dihydrofolate reductase (DHFR) inhibition assay; assay type: biochemical; conditions: assay kit
calf thymus DNA = system: calf thymus DNA; set-up: method as in earlier work; conditions: reference values; KEtBr known (ref 25, 47); NT ref 48 (table row: ref 45); cited from earlier work
T4 coliphage DNA = system: T4 coliphage DNA; set-up: method as in earlier work; conditions: reference values; KEtBr known (ref 25, 47); NT ref 48 (table row: ref 45); cited from earlier work
poly(dA-dT)2 = system: poly(dA-dT)2; set-up: method as in earlier work; conditions: reference values; KEtBr known (ref 25, 47); NT ref 48 (table row: ref 45); cited from earlier work
poly(dG-dC)2 = system: poly(dG-dC)2; set-up: method as in earlier work; conditions: reference values; KEtBr known (ref 25, 47); NT ref 48 (table row: ref 45); cited from earlier work

| SMILES | DNA-binding activity expressed as % decrease of fluorescence (pBR322 plasmid; previous study) [%] | IC50 (recombinant human DHFR [1]) [µM] | IC50 (recombinant human DHFR [2]) [µM] | Decrease of Fluorescence (DNA-binding effect) (pBR322 plasmid; pBR322 plasmid, same conditions, 48 (table row: ref 45)) [%] | Kapp Calf Thymus DNA (calf thymus DNA) [M⁻¹] | Kapp T4 DNA (T4 coliphage DNA) [M⁻¹] | Kapp Poly (dA-dT)2 (poly(dA-dT)2) [M⁻¹] | Kapp poly (dG-dC)2 (poly(dG-dC)2) [M⁻¹] |
| --- | --- | --- | --- | --- | --- | --- | --- | --- |
| COc1ccc(CC(=O)Nc2cnc(N)nc2)c(OC)c1OC [B] | 45.18 | 0.99 |  |  |  |  |  |  |
| Cn1cc(NC(=O)c2cc(NC(=O)CN=C(N)N)cn2C)cc1C(=O)NCCC(=N)N [NT, netropsin] |  |  | 20.56 ± 0.01 | 74 | 870000 | 830000 | 8.75e+07 | 250000 |
